Test results reported in patent publication US7879881B2, “Piperidinyl compounds that selectively bind integrins” (Janssen Pharmaceutica NV, priority 2002, dated 2011).
Like-named read-outs stand apart in the source and are kept apart here.

Assays:
Human αvβ3 = target: T1, Human αvβ3 (Homo sapiens, UniProt P05106+P06756); experiment: In Vitro Solid Phase Purified αvβ3 Binding Assay (vitronectin/αvβ3); details: vitronectin binding to immobilized purified human αvβ3, mean ± spread
T1 construct: purchased Chemicon International Inc., Temecula, Calif
Outline: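 Purified human αvβ3 immobilized at 1 μg/ml in Tris buffer with Ca, Mg and Mn; compounds competed with 2 nM vitronectin for 3 h at 37 °C. Bound vitronectin detected by anti-vitronectin antibody and peroxidase ABC, absorbance at 490 nm.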

human purified αVβ5 = target: T2, human purified αVβ5 (Homo sapiens, UniProt P06756+P18084); experiment: In Vitro Solid Phase Purified αcβ5 Binding Assay (vitronectin/αVβ5); details: vitronectin binding to immobilized purified human αVβ5, mean ± spread
T2 construct: purchased Chemicon International, Inc
Outline: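 Purified human integrin immobilized at 1 μg/ml in Tris buffer with Ca2+, Mg2+, Mn2+ and NaCl, then BSA-blocked. Compounds added just before 2 nM vitronectin, 3 h at 37 °C. Bound vitronectin detected by anti-vitronectin antibody with biotin/peroxidase (ABC) detection at 490 nm.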

GP IIb/IIIa = GP IIb/IIIa (Homo sapiens, UniProt P05106+P08514); experiment: In Vitro Solid Phase Purified GP IIb/IIIa Binding Assay (biotinylated fibrinogen); details: biotinylated fibrinogen binding to immobilized purified GP IIb/IIIa, mean ± spread
Outline: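 Purified GP IIb/IIIa coated overnight at 4° C, blocked with 5% BSA, then incubated with test compound and biotinylated fibrinogen for 2-4 h at RT in modified Tyrodes buffer. Bound fibrinogen detected with avidin-biotin HRP complex and o-phenylenediamine/H2O2 (citrate/phosphate pH 5.3), stopped with 2 N H2SO4.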

T1 sequence (P06756 31-889 limits assumed): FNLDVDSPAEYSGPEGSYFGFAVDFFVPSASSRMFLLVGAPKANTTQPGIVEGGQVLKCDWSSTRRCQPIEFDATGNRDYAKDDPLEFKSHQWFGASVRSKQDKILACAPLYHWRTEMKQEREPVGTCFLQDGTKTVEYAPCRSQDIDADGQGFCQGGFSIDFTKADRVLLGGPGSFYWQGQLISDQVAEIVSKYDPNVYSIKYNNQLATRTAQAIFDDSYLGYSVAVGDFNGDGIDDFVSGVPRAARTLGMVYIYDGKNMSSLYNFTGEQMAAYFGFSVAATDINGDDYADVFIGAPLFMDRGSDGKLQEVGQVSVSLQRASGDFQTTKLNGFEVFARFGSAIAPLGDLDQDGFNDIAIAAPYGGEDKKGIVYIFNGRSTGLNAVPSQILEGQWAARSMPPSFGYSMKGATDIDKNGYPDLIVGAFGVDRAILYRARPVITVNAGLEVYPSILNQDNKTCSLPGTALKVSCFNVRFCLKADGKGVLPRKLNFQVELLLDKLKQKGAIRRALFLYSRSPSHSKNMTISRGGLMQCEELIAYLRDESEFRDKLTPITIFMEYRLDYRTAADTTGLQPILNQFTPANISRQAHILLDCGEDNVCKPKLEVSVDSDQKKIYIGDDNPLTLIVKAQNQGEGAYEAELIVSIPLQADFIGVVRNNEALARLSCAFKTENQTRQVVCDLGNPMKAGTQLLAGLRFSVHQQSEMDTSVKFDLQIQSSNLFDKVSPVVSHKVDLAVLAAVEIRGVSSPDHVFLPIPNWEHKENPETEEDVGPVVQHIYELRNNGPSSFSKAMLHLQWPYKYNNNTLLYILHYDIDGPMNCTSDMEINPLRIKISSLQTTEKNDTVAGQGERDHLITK
T1 sequence (P06756 891-1048 partner limits assumed): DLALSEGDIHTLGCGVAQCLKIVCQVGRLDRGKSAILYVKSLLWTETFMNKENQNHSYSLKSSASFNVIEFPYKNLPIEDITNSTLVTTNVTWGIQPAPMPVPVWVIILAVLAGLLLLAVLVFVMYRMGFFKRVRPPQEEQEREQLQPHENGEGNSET
T1 sequence (P05106 27-788): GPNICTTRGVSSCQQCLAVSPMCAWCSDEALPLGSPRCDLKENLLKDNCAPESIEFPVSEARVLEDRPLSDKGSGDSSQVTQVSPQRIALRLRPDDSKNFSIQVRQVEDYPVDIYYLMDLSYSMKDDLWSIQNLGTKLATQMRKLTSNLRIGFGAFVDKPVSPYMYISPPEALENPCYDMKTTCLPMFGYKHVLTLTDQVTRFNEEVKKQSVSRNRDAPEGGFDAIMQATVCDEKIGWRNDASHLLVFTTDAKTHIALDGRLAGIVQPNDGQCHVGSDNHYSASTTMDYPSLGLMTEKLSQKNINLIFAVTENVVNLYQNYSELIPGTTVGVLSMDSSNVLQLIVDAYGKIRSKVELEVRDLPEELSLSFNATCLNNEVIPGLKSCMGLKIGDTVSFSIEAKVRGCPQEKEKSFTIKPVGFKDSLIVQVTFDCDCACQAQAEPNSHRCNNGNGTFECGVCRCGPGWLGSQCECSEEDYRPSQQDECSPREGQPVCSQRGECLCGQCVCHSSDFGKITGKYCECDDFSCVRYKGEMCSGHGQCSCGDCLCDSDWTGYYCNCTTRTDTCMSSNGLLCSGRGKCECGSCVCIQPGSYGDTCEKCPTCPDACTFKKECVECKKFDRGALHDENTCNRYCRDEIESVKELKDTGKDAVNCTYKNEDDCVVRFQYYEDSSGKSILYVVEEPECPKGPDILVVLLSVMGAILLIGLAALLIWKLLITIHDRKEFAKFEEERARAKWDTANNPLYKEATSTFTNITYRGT
T2 sequence (P06756 31-889 limits assumed): as the sequence (P06756 31-889 limits assumed) above
T2 sequence (P06756 891-1048 partner limits assumed): as the sequence (P06756 891-1048 partner limits assumed) above
T2 sequence (P18084 24-799): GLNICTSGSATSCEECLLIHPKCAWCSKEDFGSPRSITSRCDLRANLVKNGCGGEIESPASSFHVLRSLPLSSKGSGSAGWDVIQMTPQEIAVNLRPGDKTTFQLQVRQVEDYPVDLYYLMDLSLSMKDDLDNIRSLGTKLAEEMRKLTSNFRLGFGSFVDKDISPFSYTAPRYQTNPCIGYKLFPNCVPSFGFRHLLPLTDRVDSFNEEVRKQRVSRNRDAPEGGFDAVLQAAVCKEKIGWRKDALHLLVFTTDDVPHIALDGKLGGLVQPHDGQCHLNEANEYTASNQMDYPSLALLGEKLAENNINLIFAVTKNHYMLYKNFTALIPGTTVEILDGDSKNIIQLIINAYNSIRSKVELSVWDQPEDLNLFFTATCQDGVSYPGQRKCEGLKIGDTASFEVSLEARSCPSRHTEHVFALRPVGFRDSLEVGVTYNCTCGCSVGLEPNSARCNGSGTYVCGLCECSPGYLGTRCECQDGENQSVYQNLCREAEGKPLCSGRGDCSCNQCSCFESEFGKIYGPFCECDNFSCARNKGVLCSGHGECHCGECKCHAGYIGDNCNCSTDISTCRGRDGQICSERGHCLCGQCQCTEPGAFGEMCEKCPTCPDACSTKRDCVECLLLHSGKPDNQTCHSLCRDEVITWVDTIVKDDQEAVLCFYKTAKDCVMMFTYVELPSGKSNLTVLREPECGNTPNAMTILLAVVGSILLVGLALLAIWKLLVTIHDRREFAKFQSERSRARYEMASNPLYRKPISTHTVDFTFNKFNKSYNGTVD
Chain of GP IIb/IIIa (P08514 32-887 limits assumed): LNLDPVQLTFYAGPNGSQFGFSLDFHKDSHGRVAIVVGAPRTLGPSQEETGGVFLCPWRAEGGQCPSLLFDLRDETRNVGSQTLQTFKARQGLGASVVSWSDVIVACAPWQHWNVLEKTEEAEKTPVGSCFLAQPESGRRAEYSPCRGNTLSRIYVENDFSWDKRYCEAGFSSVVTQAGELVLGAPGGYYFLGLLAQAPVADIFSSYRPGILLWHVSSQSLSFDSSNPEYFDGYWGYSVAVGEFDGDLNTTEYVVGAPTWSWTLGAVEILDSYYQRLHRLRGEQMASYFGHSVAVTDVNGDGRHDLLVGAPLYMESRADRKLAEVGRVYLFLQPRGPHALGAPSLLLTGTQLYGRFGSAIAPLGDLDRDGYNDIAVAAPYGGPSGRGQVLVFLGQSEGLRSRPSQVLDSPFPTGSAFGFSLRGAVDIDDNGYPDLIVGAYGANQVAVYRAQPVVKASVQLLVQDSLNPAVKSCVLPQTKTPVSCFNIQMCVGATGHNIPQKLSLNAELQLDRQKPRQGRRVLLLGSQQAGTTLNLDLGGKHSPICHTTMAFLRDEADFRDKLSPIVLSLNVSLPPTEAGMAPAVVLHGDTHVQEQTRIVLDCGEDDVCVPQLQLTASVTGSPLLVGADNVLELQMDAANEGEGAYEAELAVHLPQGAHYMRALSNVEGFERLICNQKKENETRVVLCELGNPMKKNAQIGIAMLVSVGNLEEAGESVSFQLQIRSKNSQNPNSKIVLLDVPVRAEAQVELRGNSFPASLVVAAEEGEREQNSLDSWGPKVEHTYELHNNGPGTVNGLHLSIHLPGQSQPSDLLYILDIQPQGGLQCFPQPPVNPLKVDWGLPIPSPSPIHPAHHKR
Chain of GP IIb/IIIa (P08514 891-1039 partner limits assumed): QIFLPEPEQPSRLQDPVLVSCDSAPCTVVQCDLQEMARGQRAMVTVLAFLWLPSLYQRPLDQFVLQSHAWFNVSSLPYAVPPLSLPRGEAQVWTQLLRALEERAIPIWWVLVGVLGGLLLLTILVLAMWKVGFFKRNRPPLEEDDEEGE
Chain of GP IIb/IIIa (P05106 27-788): as the sequence (P05106 27-788) above

IC50 (Human αvβ3; read-out: αvβ3IC50)	IC50 (human purified αVβ5; read-out: αvβ5 IC50)	IC50 (GP IIb/IIIa; read-out: αIIbβ3 IC50)	Compound	IC50 (Human αvβ3; αvβ3IC50 (uM))	IC50 (human purified αVβ5; αvβ5 IC50 (uM))	IC50 (GP IIb/IIIa; αIIbβ3 IC50 (uM))
0.0053 ± 0.001 µM	0.0419 ± 0.0052 µM	> 50 µM	CN(C)c1cccc(C(CC(=O)O)CC2CCN(C(=O)CCc3ccc4c(n3)NCCC4)CC2)c1 (racemic) [Cpd 75]	–	–	–
0.0008 ± 0.0001 µM	0.0017 ± 0.0003 µM	6.61 ± 2.85 µM	O=C(O)CC(CC1CCN(C(=O)CCc2ccc3c(n2)NCCC3)CC1)c1cccnc1 (stereo not drawn) [Cpd 45, β-[[1-[1-oxo-3-(5,6,7,8-tetrahydro-1,8-naphthyridin-2-yl)propyl]-4-piperidinyl]methyl]-3-pyridinepropanoic acid]	–	–	–
0.0018 ± 0.0008 µM	0.007 ± 0.0008 µM	10.2 ± 6.41 µM	O=C(O)CC(CC1CCN(C(=O)CCc2ccc3c(n2)NCCC3)CC1)c1cccs1 (racemic) [Cpd 63]	–	–	–
0.0615 ± 0.0055 µM	0.147 ± 0.0847 µM	> 50 µM	NC(=O)CC(CC1CCN(C(=O)CCc2ccc3c(n2)NCCC3)CC1)c1cccc(F)c1 (racemic) [Cpd 64, 3-(3-Fluoro-phenyl)-4-[1-(3-5,6,7,8-tetrahydro-[1,8]naphthyridin-2-yl-propionyl)-piperidin-4-yl]-butyramide]	–	–	–
0.0022 ± 0.0009 µM	0.002 ± 0.0006 µM	5.44 ± 1.1 µM	O=C(O)CC(CC1CCN(C(=O)CCc2ccc3c(n2)NCCC3)CC1)c1cncc2ccccc12 (stereo not drawn) [Cpd 44, β-[[1-[1-oxo-3-(5,6,7,8-tetrahydro-1,8-naphthyridin-2-yl)propyl]-4-piperidinyl]methyl]-4-isoquinolinepropanoic acid]	–	–	–
0.0019 ± 0.0006 µM	0.0245 ± 0.0065 µM	39.1 ± 0.785 µM	O=C(O)CC(CC1CCN(C(=O)CCc2ccc3c(n2)NCCC3)CC1)c1ccc2ccccc2c1 (stereo not drawn) [Cpd 56, β-(2-naphthalenyl)-1-[1-oxo-3-(5,6,7,8-tetrahydro-1,8-naphthyridin-2-yl)propyl]-4-piperidinebutanoic acid]	–	–	–
0.0004 ± 0.0003 µM	0.0323 ± 0.0082 µM	1.44 ± 0.39 µM	O=C(O)CC(c1cnc2c(c1)CCCC2)C1CCN(C(=O)CCCc2ccc3c(n2)NCCC3)CC1 (single isomer, unassigned) [Cpd 58a, 5,6,7,8-Tetrahydro-β-[1-[1-oxo-4-(5,6,7,8-tetrahydro-1,8-naphthyridin-2-yl)butyl]-4-piperidinyl]-3-quinolinepropanoic acid]	–	–	–
0.0026 ± 0.0014 µM	0.0096 ± 0.0038 µM	7.81 ± 4.67 µM	COc1cccc(C(CC(=O)O)CC2CCN(C(=O)CCc3ccc4c(n3)NCCC4)CC2)c1 (racemic) [Cpd 59]	–	–	–
> 0.5 µM	> 1 µM	> 50 µM	CC(C)OC(=O)CCCC1CCN(C(=O)CCc2ccc3c(n2)NCCC3)CC1 [Cpd 69, 4-[1-(3-5,6,7,8-Tetrahydro-[1,8]naphthyridin-2-yl-propionyl)-piperidin-4-yl]-butyric acid isopropyl ester]	–	–	–

The remaining lines, values behind:

Compound	IC50 (Human αvβ3; read-out: αvβ3IC50)	IC50 (human purified αVβ5; read-out: αvβ5 IC50)	IC50 (GP IIb/IIIa; read-out: αIIbβ3 IC50)	IC50 (Human αvβ3; αvβ3IC50 (uM))	IC50 (human purified αVβ5; αvβ5 IC50 (uM))	IC50 (GP IIb/IIIa; αIIbβ3 IC50 (uM))
COc1ccc(C(CCC2CCN(C(=O)CCCNc3ccccn3)CC2)CC(=O)O)cn1 (stereo not drawn) [Cpd 25, 6-methoxy-β-[2-[1-[1-oxo-4-(2-pyridinylamino)butyl]-4-piperidinyl]ethyl]-3-pyridinepropanoic acid]	0.0456 ± 0.0066 µM	0.773 ± 0.118 µM	8.67 ± 1.72 µM	–	–	–
O=C(O)CC(CC1CCN(C(=O)CCCc2ccc3c(n2)NCCC3)CC1)c1cccc(F)c1 (stereo not drawn) [Cpd 31, β-(3-fluorophenyl)-1-[1-oxo-4-(5,6,7,8-tetrahydro-1,8-naphthyridin-2-yl)butyl]-4-piperidinebutanoic acid]	0.033 µM	0.3 µM	21.6 ± 4.87 µM	–	–	–
COc1ccc(C(CCC2CCN(C(=O)CCc3ccc4c(n3)NCCC4)CC2)CC(=O)O)cn1 (single isomer, unassigned) [Cpd 21b, 6-methoxy-β-[2-[1-[1-oxo-3-(5,6,7,8-tetrahydro-1,8-naphthyridin-2-yl)propyl]-4-piperidinyl]ethyl]-3-pyridinepropanoic acid]	0.405 µM	0.28 µM	1.97 µM	–	–	–
CN1CC(C(CC(=O)O)CC2CCN(C(=O)CCc3ccc4c(n3)NCCC4)CC2)Cc2ccccc21 (racemic) [Cpd 67, N-Methyl-1,2,3,4-tetrahydro-β-[[1-[1-oxo-3-(5,6,7,8-tetrahydro-1,8-naphthyridin-2-yl)propyl]-4-piperidinyl]methyl]-3-quinolinepropanoic acid]	–	–	7.82 µM	0.048 ± 0.003 µM	0.176 ± 0.035 µM	–
O=C(O)CC(c1cnc2ccccc2c1)C1CCN(C(=O)Cc2cccc(NC3=NCC(O)CN3)c2)CC1 (stereo not drawn) [Cpd 3, β-[1-[[3-[(1,4,5,6-Tetrahydro-5-hydroxy-2-pyrimidinyl)amino]phenyl]acetyl]-4-piperidinyl]-3-quinolinepropanoic acid]	0.0036 ± 0.0004 µM	2.5 µM	0.21 µM	–	–	–
O=C(O)CC(CC1CCN(C(=O)c2cccc(NC3=NCC(O)CN3)c2)CC1)c1ccc2c(c1)OCO2 (stereo not drawn) [Cpd 27, β-(1,3-benzodioxol-5-yl)-1-[3-[(1,4,5,6-tetrahydro-5-hydroxy-2-pyrimidinyl)amino]benzoyl]-4-piperidinebutanoic acid]	0.048 µM	0.81 µM	1.62 ± 0.56 µM	–	–	–
O=C(O)CC(CC1CCN(C(=O)CCc2ccc3c(n2)NCCC3)CC1)c1ccc2c(c1)OCC2 (single isomer, unassigned) [Cpd 36b, 3-(2,3-Dihydro-benzofuran-6-yl)-4-[1-(3-5,6,7,8-tetrahydro-[1,8]naphthyridin-2-yl-propionyl)-piperidin-4-yl]-butyric acid]	0.084 µM	0.129 µM	> 50 µM	–	–	–
β-[2-[1-[1-oxo-3-(5,6,7,8-tetrahydro-1,8-naphthyridin-2-yl)propyl]-4-piperidinyl]ethyl]-3-quinolinepropanoic acid [Cpd 52]	0.0064 ± 0.0014 µM	> 50 µM	0.57 ± 0.04 µM	–	–	–
CC1=NCC(C(CC(=O)O)CC2CCN(C(=O)CCc3ccc4c(n3)NCCC4)CC2)CN1 (stereo not drawn) [Cpd 18, 1,4,5,6-tetrahydro-2-methyl-β-[[1-[1-oxo-3-(5,6,7,8-tetrahydro-1,8-naphthyridin-2-yl)propyl]-4-piperidinyl]methyl]-5-pyrimidinepropanoic acid]	> 5 µM	> 5 µM	> 50 µM	–	–	–
O=C(O)CCC1CCN(C(=O)Cc2cccc(NC3=NCCCN3)c2)CC1 [Cpd 1, 1-[[3-[(1,4,5,6-Tetrahydro-2-pyrimidinyl)amino]phenyl]acetyl]-4-piperidinepropanoic acid]	0.056 ± 0.007 µM	> 5 µM	4.33 ± 0.15 µM	–	–	–
O=C(O)CC(CC1CCN(C(=O)CCCc2ccc3c(n2)NCCC3)CC1)c1ccc(F)cc1 (stereo not drawn) [Cpd 34, β-(4-fluorophenyl)-1-[1-oxo-4-(5,6,7,8-tetrahydro-1,8-naphthyridin-2-yl)butyl]-4-piperidinebutanoic acid]	0.148 ± 0.1 µM	1.04 ± 0.109 µM	> 50 µM	–	–	–
COc1ccc(C(CC(=O)O)CC2CCN(C(=O)CCc3ccc4c(n3)NCCC4)CC2)cc1F (stereo not drawn) [Cpd 42, β-(3-fluoro-4-methoxyphenyl)-1-[1-oxo-3-(5,6,7,8-tetrahydro-1,8-naphthyridin-2-yl)propyl]-4-piperidinebutanoic acid]	0.0007 ± 0.0003 µM	0.0189 ± 0.0046 µM	5 ± 0.74 µM	–	–	–
Cc1ncc(C(CC(=O)O)CC2CCN(C(=O)CCc3ccc4c(n3)NCCC4)CC2)cn1 (stereo not drawn) [Cpd 35, 2-methyl-β-[[1-[1-oxo-3-(5,6,7,8-tetrahydro-1,8-naphthyridin-2-yl)propyl]-4-piperidinyl]methyl]-5-pyrimidinepropanoic acid]	0.0007 ± 0.0004 µM	0.0007 ± 0.0002 µM	0.965 ± 0.07 µM	–	–	–
COc1ccc(C(CC(=O)O)CC2CCN(C(=O)CCc3ccc4c(n3)NCCC4)CC2)cn1 (single isomer, unassigned) [Cpd 28b, 6-methoxy-β-[[1-[1-oxo-3-(5,6,7,8-tetrahydro-1,8-naphthyridin-2-yl)propyl]-4-piperidinyl]methyl]-3-pyridinepropanoic acid]	0.0208 ± 0.0053 µM	0.126 ± 0.0448 µM	24.3 µM	–	–	–
O=C(O)CC(CC1CCN(C(=O)CCc2ccc3c(n2)NCCC3)CC1)c1ccc(F)cc1 (stereo not drawn) [Cpd 33, β-(4-fluorophenyl)-1-[1-oxo-3-(5,6,7,8-tetrahydro-1,8-naphthyridin-2-yl)propyl]-4-piperidinebutanoic acid]	0.0013 ± 0.0004 µM	0.0226 ± 0.0052 µM	> 50 µM	–	–	–
O=C(O)CC(CC1CCN(C(=O)CCc2ccc3c(n2)NCCC3)CC1)c1cccc(F)c1 (single isomer, unassigned) [Cpd 30a, β-(3-fluorophenyl)-1-[1-oxo-3-(5,6,7,8-tetrahydro-1,8-naphthyridin-2-yl)propyl]-4-piperidinebutanoic acid]	0.0004 ± 0.0002 µM	0.0019 ± 0.0004 µM	2.93 ± 1.86 µM	–	–	–
O=C(O)CC(CC1CCN(C(=O)CCCc2ccc3c(n2)NCCC3)CC1)c1cnc2ccccc2c1 (stereo not drawn) [Cpd 29, β-[[1-[1-oxo-4-(5,6,7,8-tetrahydro-1,8-naphthyridin-2-yl)butyl]-4-piperidinyl]methyl]-3-quinolinepropanoic acid]	0.0022 ± 0.0008 µM	0.119 ± 0.015 µM	1.74 ± 0.89 µM	–	–	–
O=C(O)CC(c1cnc2ccccc2c1)C1CCN(C(=O)CCCc2ccc3c(n2)NCCC3)CC1 (stereo not drawn) [Cpd 4, β-[1-[1-Oxo-4-(5,6,7,8-tetrahydro-1,8-naphthyridin-2-yl)butyl]-4-piperidinyl]-3-quinolinepropanoic acid]	–	–	–	0.0005 ± 0.0001 µM	0.0355 ± 0.0089 µM	0.87 ± 0.19 µM
